In US20240101957A1, “METHODS AND COMPOSITIONS FOR GENERATING EMBRYOS IN VITRO FROM PLURIPOTENT STEM CELLS” (California Institute of Technology, priority 2022, published 2024):
Entries after “also recorded” stand apart in the source; their conditions may differ.

Legend:
Assay type in all cases: cell-based
[1] = system: inducible human embryoids; test: Formation of organized inducible human embryoids with BMP inhibitor added between days 0-2; conditions: added between days 0-2 post-aggregation; vs untreated control
Description: (§1) To generate the three-dimensional stem cell-derived model of the post-implantation embryo, RSeT cells between 2 and 6 passages post-conversion to RSeT media were passaged as normal. The media for extraembryonic-like cells (induced GATA6, induced GATA6-SOX17 or induced GATA3-AP2γ) was changed to N2B27 with 5% Knockout Serum Replacement and 1 μg/mL DOX on the following day (Day −3). This media was refreshed every 24 hours for 3 days. On Day 0 (the day of aggregation), an Aggrewell dish (34415, STEMCELL Technologies) was prepared by pre-coating with anti-adherence solution (07010, STEMCELL Technologies) and centrifuging at 2000 g for 5 minutes. Wells were washed twice with PBS prior to the addition of experiment media. This media consisted of N2B27 with 5% knockout serum replacement, 1 μg/mL doxycycline, and 10 μM Y-27632. Induced cells and wildtype ESCs were enzymatically dissociated 1 hour after addition of 10 μM Y-27632 to wells containing cells for inducible human embryoid generation. Dissociated cells were pelleted and resuspended in experiment media and placed in gelatin-coated wells for MEF depletion. After 15-30 minutes, cells were counted, mixed, and plated into an Aggrewell dish with a final calculation of 8 wildtype-ESC, 8 hypoblast-like, and 16 trophoblast-like cells plated per microwell in the Aggrewell. […]

[2] = system: human embryo-like model; test: Number of SOX17/NANOG/AP2γ triple-positive primordial germ cell-like cells in treated embryoids; conditions: Day 4 embryoids; vs control
Description: as §1, with “Aggrewell. At 8 d.p.f., in vitro cultured human embryos had 32:24:228 epiblast:hypoblast:trophoblast cells. Importantly, however, many of the trophoblast cells were not in contact with the inner cell mass-derived tissues or were terminally differentiated. Additionally, inducible GATA6-SOX17 cells in culture proliferated slower than the other two cell populations after doxycycline addition. Therefore, an initial seeding density with: (1) a total cell number similar to that used in mouse models that allowed for successful cell sorting; (2) a ratio of cells that reflected the peri-implantation embryo; and (3) a reduced number of inducible GATA3-AP2γ cells and an increased number of inducible GATA6-SOX17 cells was utilized.” for “Aggrewell.”

[3] = system: human embryo-like model; test: Differentiation of the inner epiblast-like domain (SOX2, CDX2, AP2a immunofluorescence) in treated human embryo-like model; conditions: treated between 48- and 96-hours post-aggregation; Day 4 and Day 6; compared to untreated control or BMP4 treated structures
Description: as §1

c1ccc2c(-c3cnn4cc(-c5ccc(N6CCNCC6)cc5)cnc34)ccnc2c1 [LDN193189]
formation of organized structures (embryoid formation) [1]: blocked formation of organized structures; also recorded: failing to form
number of primordial germ cell-like cells [2]: decreased
CDX2 and AP2a upregulation in the inner domain [3]: lesser CDX2 and AP2a upregulation
SOX2 expression in the inner domain [3]: increased maintenance of SOX2 expression

B1: BMP4: bone morphogenic protein-4, TGFβ superfamily member (protein, UniProt P12644 293-408, looked up)
Bone morphogenetic protein 4: SPKHHSQRARKKNKNCRRHSLYVDFSDVGWNDWIVAPPGYQAFYCHGDCPFPLADHLNSTNHAIVQTLVNSVNSSIPKACCVPTELSAISMLYLDEYDKVVLKNYQEMVVEGCGCR
number of primordial germ cell-like cells [2]: minimal effect

B2: Activin-A: an agonist of SMAD2.3 signaling (protein, UniProt P08476 311-426, looked up)
Inhibin beta A chain: GLECDGKVNICCKKQFFVSFKDIGWNDWIIAPSGYHANYCEGECPSHIAGTSGSSLSFHSTVINHYRMRGHSPFANLKSCCVPTKLRPMSMLYYDDGQNIIKKDIQNMIVEECGCS
modifications: Inhibin beta A chain
notes: an agonist of SMAD2.3 signaling
number of primordial germ cell-like cells [2]: minimal effect
